From US8188139B2, “Heterocyclic-substituted phenyl methanones” (Hoffman-La Roche Inc., priority 2005, dated 2012)

Molecular target: T1, mGlyT-1b (Mus musculus, UniProt P28571)
T1 construct: host or cells: Flp-in-CHO
T1 sequence (P28571 1-651 isoform P28571-2): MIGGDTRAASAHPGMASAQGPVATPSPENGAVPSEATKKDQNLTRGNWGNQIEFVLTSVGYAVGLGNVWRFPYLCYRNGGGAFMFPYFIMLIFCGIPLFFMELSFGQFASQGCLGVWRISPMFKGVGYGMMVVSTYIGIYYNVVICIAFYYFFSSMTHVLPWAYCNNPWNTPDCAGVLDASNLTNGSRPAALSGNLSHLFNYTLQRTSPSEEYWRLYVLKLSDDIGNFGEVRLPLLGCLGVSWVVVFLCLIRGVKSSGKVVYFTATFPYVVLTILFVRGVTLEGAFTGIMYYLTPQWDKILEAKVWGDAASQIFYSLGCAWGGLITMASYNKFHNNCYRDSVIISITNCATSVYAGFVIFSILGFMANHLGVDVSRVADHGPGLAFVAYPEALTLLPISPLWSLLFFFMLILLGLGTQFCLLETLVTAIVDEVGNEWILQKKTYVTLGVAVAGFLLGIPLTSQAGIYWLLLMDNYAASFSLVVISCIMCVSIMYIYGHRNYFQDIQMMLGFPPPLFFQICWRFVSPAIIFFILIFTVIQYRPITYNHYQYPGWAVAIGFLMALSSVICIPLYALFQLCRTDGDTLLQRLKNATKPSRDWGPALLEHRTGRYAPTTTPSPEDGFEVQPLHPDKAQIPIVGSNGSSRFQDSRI
Experiment: Glycine uptake inhibition assay (mGlyT-1b)
Assay type: cell-based
Settings: inhibition of [3H]-glycine uptake in Flp-in-CHO cells transfected with mGlyT-1b cDNA; 20 min preincubation at 22° C.; read-out: IC50 (μM) at GlyT-1
In short: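 Flp-in CHO cells stably expressing mouse GlyT-1b were preincubated with inhibitor (concentration range) for 20 min at 22° C. in pH 7.4 uptake buffer; nonspecific uptake defined with 10 mM glycine. [3H]-glycine 60 nM plus 25 μM unlabelled glycine was then added; cell-associated radioactivity counted by scintillation and IC50 derived.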

Row | SMILES | IC50 [µM]
1 | CC(Oc1ccc(S(C)(=O)=O)cc1C(=O)N1Cc2cc(Cl)c(Cl)cc2C1)C(F)(F)F (racemic) [Example 9, rac-(5,6-Dichloro-1,3-dihydro-isoindol-2-yl)-[5-methanesulfonyl-2-(2,2,2-trifluoro-1-methyl-ethoxy)-phenyl]-methanone] | 0.031
2 | C[C@H](Oc1ccc(S(C)(=O)=O)cc1C(=O)N1Cc2ccc(-c3cc(F)cc(F)c3)cc2C1)C(F)(F)F [Example 337] | 0.022
